≈ marks a conversion by molar mass, not a printed value.
Columns and labels:
Assay type in all cases: cell-based
[1] = system: Vancomycin resistant enterococci 6; assay: organism not typed; settings: read-out: Inhibitory Activity (MIC)
Description: (§1) To this end, the compound of Example 2 and the currently used oxazolidinone class Linezolid were examined for minimal inhibitory concentration (hereinafter, referred to as “MIC”) against Gram-positive strains and resistant bacteria including methicillin-resistant Staphylococcus aureus (MRSA) and vancomycin resistant enterococci by an agar dilution method using Muller-Hinton agar.
(§2) As used herein, the term MIC is intended to refer to the lowest concentration of an antibiotic that will inhibit the growth of a microorganism. MIC values are expressed as μg/ml. Bacterial strains used for this assay included Haemophilus influenza, Coagulase negative staphylococi, Staphylcoccus aureus (MRSA), Enterococcus faecalis (VER), Enterococcus faecium (VR 1, VR 2), and Vancomycin resistant enterococci 1˜6.
(§3) After being incubated for 18 hours in a Muller-Hinton broth, the strains were transferred to fresh broth at a concentration of approximately 10^7 CFU/ml. Isolates were distributed with a multipoint inoculator (MIC-2000 Dynatech) at 10^4 CFU per spot onto agar plates containing the compound of the Examples or Comparative Examples.

[2] = system: Vancomycin resistant enterococci 4; assay: organism not typed; settings: read-out: Inhibitory Activity (MIC)
Description: as §1, §2, §3

[3] = system: Vancomycin resistant enterococci 5; assay: organism not typed; settings: read-out: Inhibitory Activity (MIC)
Description: as §1, §2, §3

[4] = system: Coagulase negative staphylococi; assay: MIC by agar dilution method using Muller-Hinton agar; settings: read-out: Inhibitory Activity (MIC); strain b: Coagulase negative staphylococi
Description: as §1, §2, §3

[5] = system: Vancomycin resistant enterococci 2; assay: as above; settings: strain h: Vancomycin resistant enterococci 2; read-out: Inhibitory Activity (MIC)
Description: as §1, §2, §3

[6] = system: Enterococcus faecium (VR 2); assay: as above; settings: strain f: Enterococcus faecium (VR 2); read-out: Inhibitory Activity (MIC)
Description: as §1, §2, §3

Haemophilus influenza = assay: as above; settings: read-out: Inhibitory Activity (MIC); strain a: Haemophilus infuenz
Description: as §1, §2, §3

[7] = system: Vancomycin resistant enterococci 3; assay: as above; settings: strain i: Vancomycin resistant enterococci 3; read-out: Inhibitory Activity (MIC)
Description: as §1, §2, §3

[8] = system: Enterococcus faecium (VR 1); assay: as above; settings: strain e: Enterococcus faecium (VR 1); read-out: Inhibitory Activity (MIC)
Description: as §1, §2, §3

[9] = system: Staphylcoccus aureus (MRSA); assay: as above; settings: Staphylococcus aureus; strain c: Staphylcoccus aureus (MRSA); read-out: Inhibitory Activity (MIC)
Description: as §1, §2, §3

[10] = system: Enterococcus faecalis (VRE); assay: as above; settings: strain d: Enterococcus faecalis (VRE); read-out: Inhibitory Activity (MIC)
Description: as §1, §2, §3

[11] = system: Vancomycin resistant enterococci 1; assay: as above; settings: strain g: Vancomycin resistant enterococci 1; read-out: Inhibitory Activity (MIC)
Description: as §1, §2, §3

[12] = system: Gram-positive strains and resistant bacteria including MRSA and vancomycin resistant enterococci; assay: MIC by agar dilution, text summary over the strain panel; settings: read-out: MIC against Haemophilus influenza, Coagulase negative staphylococci and vancomycin resistant enterococci (VRE)
Description: as §1, §2, §3

For CC(=O)NC[C@H]1CN(c2cc(F)c(N3CC(F)C4(CC4)C3)c(F)c2)C(=O)O1 (stereo partly drawn) [Example 2, (S)—N-{{3-[3,5-Difluoro-4-(7-fluoro-5-azaspiro[2,4]heptan-5-yl)phenyl]-2-oxo-5-oxazolidinyl}methyl}acetamide], the MIC [1] was 0.781 µg/mL (≈ 2.04 µM), the MIC [2] was 0.781 µg/mL (≈ 2.04 µM) and the MIC [3] was 0.781 µg/mL (≈ 2.04 µM). The MIC [4] was 0.781 µg/mL (≈ 2.04 µM), the MIC [5] was 1.56 µg/mL (≈ 4.08 µM) and the MIC [6] was 1.56 µg/mL (≈ 4.08 µM). The MIC (Haemophilus influenza) was 0.781 µg/mL (≈ 2.04 µM), the MIC [7] was 3.12 µg/mL (≈ 8.15 µM) and the MIC [8] was 1.56 µg/mL (≈ 4.08 µM). It also gave an MIC [9] of 1.56 µg/mL (≈ 4.08 µM), an MIC [10] of 1.56 µg/mL (≈ 4.08 µM) and an MIC [11] of 3.12 µg/mL (≈ 8.15 µM).

With CC(=O)NC[C@H]1CN(c2ccc(N3CCOCC3)c(F)c2)C(=O)O1 [Linezolid, reference compound] the MIC [4] was 3.12 µg/mL (≈ 9.26 µM), the MIC (Haemophilus influenza) was 3.12 µg/mL (≈ 9.26 µM) and the MIC [12] was 1.56 to 3.12 µg/mL (≈ 4.63 to 9.26 µM).
